Measurements published in the supplement of paper PMC11061612.

Assays:
Experiment in all cases: Bliss excess, mean over the matrix (fraction); higher = more synergy
[1] = test system: Saos-2 (Osteosarcoma)
Method in brief: (§1)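 After 24 hours at 37°C and 5% CO2 in 1536-well plates, cells in DMEM/F12 or RPMI plus 10% FBS received two-drug dose matrices for 72 hours. Viability came from CellTiter-Glo 2.0 luminescence and was scaled as inhibition, anchored at 0 by vehicle wells and at 1 by blank wells. Combination Emax is taken as the second-highest inhibition in the matrix, and Bliss excess as the observed combination effect less EA + EB − EA·EB, with EA and EB the single-agent effects.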

[2] = test system: HCC-827 (Lung Adenocarcinoma)
Method in brief: as §1

[3] = test system: NCI-H1688 (Small Cell Lung Carcinoma)
Method in brief: as §1

[4] = test system: SK-MEL-1 (Melanoma)
Method in brief: as §1

[5] = test system: HLE (Hepatocellular Carcinoma)
Method in brief: as §1

[6] = test system: HCC1143 (Breast Carcinoma)
Method in brief: as §1

[7] = test system: D-283MED (Other Solid Carcinomas)
Method in brief: as §1

[8] = test system: GDM-1 (Acute Myeloid Leukemia)
Method in brief: as §1

[9] = test system: ETK-1 (Biliary Tract Carcinoma)
Method in brief: as §1

[10] = test system: DOK (Oral Cavity Carcinoma)
Method in brief: as §1

[11] = test system: CAL-39 (Other Solid Carcinomas)
Method in brief: as §1

[12] = test system: HCC38 (Breast Carcinoma)
Method in brief: as §1

[13] = test system: CS1 (Chondrosarcoma)
Method in brief: as §1

[14] = test system: SNG-M (Endometrial Carcinoma)
Method in brief: as §1

[15] = test system: MCF7 (Breast Carcinoma)
Method in brief: as §1

[16] = test system: SK-UT-1 (Other Solid Carcinomas)
Method in brief: as §1

[17] = test system: RCC10RGB (Kidney Carcinoma)
Method in brief: as §1

[18] = test system: P31-FUJ (Acute Myeloid Leukemia)
Method in brief: as §1

[19] = test system: HOP-92 (Non-Small Cell Lung Carcinoma)
Method in brief: as §1

[20] = test system: MEG-01 (Chronic Myelogenous Leukemia)
Method in brief: as §1

| Compound | Bliss excess [1] | Bliss excess [2] | Bliss excess [3] | Bliss excess [4] | Bliss excess [5] | Bliss excess [6] | Bliss excess [7] | Bliss excess [8] | Bliss excess [9] | Bliss excess [10] | Bliss excess [11] | Bliss excess [12] | Bliss excess [13] | Bliss excess [14] | Bliss excess [15] | Bliss excess [16] | Bliss excess [17] | Bliss excess [18] | Bliss excess [19] | Bliss excess [20] |
| --- | --- | --- | --- | --- | --- | --- | --- | --- | --- | --- | --- | --- | --- | --- | --- | --- | --- | --- | --- | --- |
| CCN(CCO)CCCOc1ccc2c(Nc3cc(CC(=O)Nc4cccc(F)c4)[nH]n3)ncnc2c1 [AZD2811] + O=C(c1cc(Cc2n[nH]c(=O)c3ccccc23)ccc1F)N1CCN(C(=O)C2CC2)CC1 [Olaparib] (first compound max 1 µM, 7x7, partner max 10 µM) | 0.0395 | -0.0162 | -0.0131 | -0.0325 | 0.004 | 0.015 | -0.0234 | -0.0709 | 0.0049 | -0.0086 | 0.0017 | -0.003 | -0.0515 | -0.018 | -0.0023 | 0.0453 | -0.0004 | -0.0895 | -0.0048 | -0.0628 |
| COc1cccc(OCCCN)c1-c1cc(Nc2cnc(C#N)cn2)n[nH]1 [Prexasertib] + CCc1c2c(nc3ccc(O)cc13)-c1cc3c(c(=O)n1C2)COC(=O)[C@]3(O)CC [SN-38] (first compound max 1 µM, 7x7, partner max 0.3 µM) | -0.0064 | 0 | 0.111 | -0.0593 | -0.0359 | 0.0452 | -0.0222 | -0.0108 | 0.0465 | 0.0242 | -0.0308 | -0.0201 | -0.0742 | -0.0534 | -0.0081 | -0.0125 | -0.081 | -0.0507 | 0.0418 | -0.0073 |
| NC1(C(=O)N[C@@H](CCO)c2ccc(Cl)cc2)CCN(c2ncnc3[nH]ccc23)CC1 [Capivasertib] + Cn1cnc2c(F)c(Nc3ccc(Br)cc3Cl)c(C(=O)NOCCO)cc21 [Selumetinib] (first compound max 10 µM, 7x7, partner max 10 µM) | 0.0087 | 0.04 | 0.0549 | 0.0465 | 0.0365 | -0.0014 | 0.0855 | 0.072 | 0.0555 | 0.0518 | -0.019 | 0.0116 | 0.0373 | 0.0648 | -0.0332 | 0.0843 | -0.0305 | 0.0376 | 0.003 | 0.0548 |
| Cc1cc2ncnn2cc1Nc1ncc2c(n1)n(C1CCOCC1)c(=O)n2C [AZD7648] + CN(C)CCCOc1ccc(-c2ccc3ncc4c(c3c2)n(C2CCOCC2)c(=O)n4C)cn1 [AZD0156] (first compound max 10 µM, 7x7, partner max 1 µM) | -0.016 | 0.0386 | 0.0029 | -0.0082 | -0.0274 | 0.0031 | -0.0339 | -0.0215 | -0.0041 | -0.0075 | -0.0104 | 0.0157 | -0.0028 | 0.0073 | -0.0048 | 0.0143 | -0.0735 | 0.0381 | -0.0136 | -0.0108 |
| COc1nnc2ccc(N3CCC(c4ccc(OCCN5CCN(C)C(=O)[C@H]5C)cc4)CC3)nn12 [AZD5153] + CCN(CCO)CCCOc1ccc2c(Nc3cc(CC(=O)Nc4cccc(F)c4)[nH]n3)ncnc2c1 [AZD2811] (first compound max 1 µM, 7x7, partner max 1 µM) | -0.0809 | -0.0513 | 0.0116 | -0.0295 | -0.0177 | -0.0474 | 0.001 | -0.0378 | -0.118 | -0.0906 | -0.0508 | -0.0398 | -0.0284 | -0.0158 | -0.0721 | -0.0144 | -0.133 | -0.0293 | -0.079 | -0.047 |
| CN(CCO)CC[C@H](CSc1ccccc1)Nc1ccc(S(=O)(=O)NC(=O)c2ccc(N3CCC([C@@H](O)c4ccccc4-c4ccc(Cl)cc4)CC3)cc2)cc1S(=O)(=O)C(F)(F)F [AZD4320] + C[C@@H]1COCCN1C2=NC(=NC(=C2)C3(CC3)[S@](=N)(=O)C)C4=C5C=CNC5=NC=C4 [AZD6738] (first compound max 1 µM, 7x7, partner max 10 µM) | 0.0256 | 0.0192 | -0.0076 | -0.0757 | 0.0036 | -0.0812 | 0.0139 | -0.0144 | -0.0463 | -0.0269 | -0.0685 | 0.0306 | -0.0499 | -0.0426 | -0.0145 | 0.0253 | -0.0734 | -0.0083 | 0.0076 | -0.0267 |
| C=CCn1c(=O)c2cnc(Nc3ccc(N4CCN(C)CC4)cc3)nc2n1-c1cccc(C(C)(C)O)n1 [AZD1775] + O=C(c1cc(Cc2n[nH]c(=O)c3ccccc23)ccc1F)N1CCN(C(=O)C2CC2)CC1 [Olaparib] (first compound max 1 µM, partner max 10 µM) | -0.0422 | -0.042 | -0.0142 | -0.0054 | -0.0567 | -0.0675 | 0.0079 | 0.0017 | -0.0292 | -0.0236 | -0.0223 | -0.068 | 0.0057 | -0.0105 | 0.003 | -0.0148 | -0.0166 | -0.0809 | -0.0181 | -0.0188 |
| CC1(C)CCC(CN2CCN(c3ccc(C(=O)NS(=O)(=O)c4ccc(NCC5CCOCC5)c([N+](=O)[O-])c4)c(Oc4cnc5[nH]ccc5c4)c3)CC2)=C(c2ccc(Cl)cc2)C1 [Venetoclax] + C[C@@H]1COCCN1C2=NC(=NC(=C2)C3(CC3)[S@](=N)(=O)C)C4=C5C=CNC5=NC=C4 [AZD6738] (first compound max 1 µM, 7x7, partner max 10 µM) | -0.0316 | -0.0418 | 0.0294 | -0.027 | -0.063 | -0.0573 | -0.0345 | -0.0163 | -0.0562 | -0.0833 | -0.026 | -0.0264 | 0.0039 | -0.0296 | 0.0003 | -0.0299 | -0.0242 | 0.0498 | -0.0427 | -0.0256 |
| NC1(C(=O)N[C@@H](CCO)c2ccc(Cl)cc2)CCN(c2ncnc3[nH]ccc23)CC1 [Capivasertib] + C[C@@H]1COCCN1C2=NC(=NC(=C2)C3(CC3)[S@](=N)(=O)C)C4=C5C=CNC5=NC=C4 [AZD6738] (first compound max 10 µM, 7x7, partner max 10 µM) | -0.0717 | -0.0421 | -0.0062 | 0.0147 | -0.038 | -0.105 | -0.0048 | -0.024 | -0.066 | -0.0681 | 0.0019 | -0.0366 | -0.0517 | -0.0984 | -0.0707 | -0.0983 | -0.134 | -0.145 | -0.0518 | -0.0464 |
| CC1(C)CCC(CN2CCN(c3ccc(C(=O)NS(=O)(=O)c4ccc(NCC5CCOCC5)c([N+](=O)[O-])c4)c(Oc4cnc5[nH]ccc5c4)c3)CC2)=C(c2ccc(Cl)cc2)C1 [Venetoclax] + C1CN(CCC1(C(=O)N[C@@H](CCO)C2=CC=C(C=C2)Cl)N)C3=NC=NC4=C3C=CN4 [Capivasertib] (first compound max 1 µM, 7x7, partner max 3 µM) | -0.029 | -0.0278 | -0.0065 | -0.0561 | -0.0132 | -0.0004 | -0.0218 | -0.0325 | -0.0619 | -0.0532 | -0.0183 | -0.0177 | -0.072 | 0.0086 | 0.0076 | 0.0153 | -0.0402 | 0.0141 | -0.0245 | -0.0349 |
| CCN(CCO)CCCOc1ccc2c(Nc3cc(CC(=O)Nc4cccc(F)c4)[nH]n3)ncnc2c1 [AZD2811] + C[C@@H]1COCCN1C2=NC(=NC(=C2)C3(CC3)[S@](=N)(=O)C)C4=C5C=CNC5=NC=C4 [AZD6738] (first compound max 1 µM, 7x7, partner max 10 µM) | -0.0218 | -0.0856 | -0.0054 | -0.0409 | 0.0179 | -0.0291 | -0.0541 | -0.0749 | -0.0627 | -0.0502 | 0.0015 | -0.0372 | -0.0842 | -0.0273 | -0.0565 | 0.0317 | -0.0472 | -0.0332 | 0.0305 | -0.0203 |
| Cc1c2c(nn1C)CSCc1cc(n(C)n1)CSc1cc(c3ccccc3c1)OCCCc1c(C(=O)O)n(C)c3c-2c(Cl)ccc13 [AZD5991] + C1CN(CCC1(C(=O)N[C@@H](CCO)C2=CC=C(C=C2)Cl)N)C3=NC=NC4=C3C=CN4 [Capivasertib] (first compound max 1 µM, 7x7, partner max 3 µM) | 0.0473 | -0.0212 | 0.015 | -0.0373 | 0.0341 | 0.0114 | 0.0094 | 0.0461 | -0.0525 | -0.0113 | -0.0203 | 0.0062 | -0.0261 | -0.0065 | 0.0778 | 0.0297 | -0.0085 | 0.0182 | -0.0294 | -0.0122 |
| COc1nnc2ccc(N3CCC(c4ccc(OCCN5CCN(C)C(=O)[C@H]5C)cc4)CC3)nn12 [AZD5153] + C[C@@H]1COCCN1C2=NC(=NC(=C2)C3(CC3)[S@](=N)(=O)C)C4=C5C=CNC5=NC=C4 [AZD6738] (first compound max 1 µM, 7x7, partner max 10 µM) | 0.0391 | 0.08 | 0.0719 | 0.0103 | 0.0608 | -0.0036 | -0.0087 | 0.0146 | 0.0107 | 0.008 | -0.011 | -0.0182 | -0.0559 | -0.0014 | -0.0228 | 0.0401 | 0.0638 | -0.0685 | 0.0246 | -0.0595 |
| COc1nnc2ccc(N3CCC(c4ccc(OCCN5CCN(C)C(=O)[C@H]5C)cc4)CC3)nn12 [AZD5153] + CC1(C)CCC(CN2CCN(c3ccc(C(=O)NS(=O)(=O)c4ccc(NCC5CCOCC5)c([N+](=O)[O-])c4)c(Oc4cnc5[nH]ccc5c4)c3)CC2)=C(c2ccc(Cl)cc2)C1 [Venetoclax] (first compound max 1 µM, 7x7, partner max 1 µM) | -0.0304 | -0.0498 | -0.003 | 0.0777 | -0.0522 | -0.0247 | -0.0343 | 0.0348 | -0.11 | -0.0696 | -0.0432 | -0.0324 | -0.054 | -0.0875 | -0.0183 | -0.0459 | -0.0296 | -0.0447 | -0.0242 | -0.0627 |
